Earlier results as cited in US20210220376A1, “ADDICTION TREATMENT OF AN ALCOHOL-CONSUMING PATIENT POPULATION” (Amygdala Neurosciences, Inc., priority 2018, published 2021).

Target: T1, hMAO-A (Homo sapiens, UniProt P21397)
T1 sequence (P21397 1-527): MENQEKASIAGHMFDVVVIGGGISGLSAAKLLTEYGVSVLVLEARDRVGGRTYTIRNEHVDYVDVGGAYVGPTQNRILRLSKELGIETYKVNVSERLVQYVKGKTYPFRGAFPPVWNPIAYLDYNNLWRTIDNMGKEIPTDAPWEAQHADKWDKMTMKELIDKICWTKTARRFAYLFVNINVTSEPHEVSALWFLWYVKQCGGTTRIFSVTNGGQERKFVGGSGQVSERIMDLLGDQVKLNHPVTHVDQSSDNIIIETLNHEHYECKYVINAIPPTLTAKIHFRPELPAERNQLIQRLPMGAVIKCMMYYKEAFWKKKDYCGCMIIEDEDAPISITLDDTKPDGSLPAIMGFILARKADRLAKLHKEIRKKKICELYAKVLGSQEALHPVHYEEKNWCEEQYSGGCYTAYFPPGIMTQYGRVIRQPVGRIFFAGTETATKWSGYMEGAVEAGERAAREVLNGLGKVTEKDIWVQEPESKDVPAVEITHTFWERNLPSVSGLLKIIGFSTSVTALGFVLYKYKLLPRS
Conditions: read-out: IC50 hMAO-A; cited from earlier work

For `O=C(NCc1ccc(-c2ccn(COP(=O)(O)O)c(=O)c2)cc1)c1c(Cl)cccc1Cl` [Compound (2), phosphoric acid mono-(4-{4-[(2,6-dichloro-benzoylamino)-methyl]-phenyl}-2-oxo-2H-pyridin-1-ylmethyl) ester], the IC50 is listed as greater than 130 µM.
